These results are taken from US20110039770A1, “INHIBITORS OF PROTEIN KINASE C ISOFORMS AND USES THEREOF” (PHARMAGAP INC., priority 2005, published 2011).

Where a SMILES comes first, the peptide text is derived from it. The star is where a group is joined. PNA(A) = NCCN(CC(=O)*)C(=O)Cn1cnc2c(N)ncnc21

Data set [1] concerns the target T1, PKC-β (Homo sapiens, UniProt P05771).
T1 construct: PRE 2 and PRE 3 in IMR-32 Neuroblastoma Cells: Protocol A; endogenous in cells; host or cells: IMR-32 human neuroblastoma cells
The data set is described as follows: Competition of PRE with PKC-β antibody binding, Protocol B, IMR-32. On the procedure:
The ability of the peptides PRE 2 and PRE 3 (see Table 4) to interfere with the binding of a PKC-α-specific polyclonal antibody (Santa Cruz Biotechnology, Inc.) to PKC-α was determined using a modified version of the protocol outlined above in which the test peptide was added directly to the cell extract prior to electrophoresis at a concentration of either 5× or 15× the concentration of the protein applied to each well of the gel for the Western blots (20 μg).
Peptides PRE 2 and PRE 3 (see Table 4) were tested for their ability to interfere with the binding of a PKC-β-specific polyclonal antibody (Santa Cruz Biotechnology, Inc.) to PKC-β using the general protocol described in Example 3.

Data set [2] concerns the target PKC-α (Homo sapiens, UniProt P17252). The data set is described as follows: Competition of PRE with PKC-α antibody binding on Western blot, Protocol A, IMR-32 lysate. More on the design: endogenous PKC-α in (A) untreated human neuroblastoma (IMR-32) cells; endogenous in cells; host or cells: IMR-32 human neuroblastoma cells. The following applies: IMR-32 cells.
Data set [3] addresses PKC beta 1 (Homo sapiens, UniProt P05771). The data set is described as follows: Kinase-Glo Luminescent Kinase Assay. In kind it is biochemical. More on the design: purchased. The following applies: read-out: % Inhibition PKC-βI. On the procedure: (§1) Compounds TIM 10, 11, 13, 14, 15, and 18-22 (see Table 28) were tested for their ability to inhibit the activity of PKC-alpha, beta 1, delta and epsilon isoforms the Kinase-Glo™ Luminescent Kinase Assay (Promega, Cat # V6712/3/4) following the manufacturer's instructions.
On the technique in general: In Kinase-Glo more light means more ATP remaining.

Data set [4] deals with T2, PKC epsilon (Homo sapiens, UniProt Q02156).
T2 sequence (Q02156 1-737): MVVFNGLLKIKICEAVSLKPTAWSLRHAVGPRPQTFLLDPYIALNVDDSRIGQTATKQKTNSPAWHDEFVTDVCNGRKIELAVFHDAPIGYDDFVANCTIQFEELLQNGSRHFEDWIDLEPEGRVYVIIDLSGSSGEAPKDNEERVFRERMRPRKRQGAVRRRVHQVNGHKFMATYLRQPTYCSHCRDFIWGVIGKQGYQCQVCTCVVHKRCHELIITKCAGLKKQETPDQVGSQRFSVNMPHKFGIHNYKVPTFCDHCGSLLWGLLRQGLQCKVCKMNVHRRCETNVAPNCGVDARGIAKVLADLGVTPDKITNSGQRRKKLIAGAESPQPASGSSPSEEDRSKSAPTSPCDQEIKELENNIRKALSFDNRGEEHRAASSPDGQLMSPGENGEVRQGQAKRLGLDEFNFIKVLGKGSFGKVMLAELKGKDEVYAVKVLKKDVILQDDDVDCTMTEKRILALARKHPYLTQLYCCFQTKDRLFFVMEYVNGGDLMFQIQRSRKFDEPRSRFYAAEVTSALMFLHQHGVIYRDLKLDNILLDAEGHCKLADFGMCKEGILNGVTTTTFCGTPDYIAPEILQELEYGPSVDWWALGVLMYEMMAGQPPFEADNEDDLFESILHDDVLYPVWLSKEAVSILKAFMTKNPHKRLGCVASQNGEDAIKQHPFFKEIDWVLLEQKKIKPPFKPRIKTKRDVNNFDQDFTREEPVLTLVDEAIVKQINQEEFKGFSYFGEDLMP
As to the kind of experiment: Kinase-Glo Luminescent Kinase Assay. In kind it is biochemical. More on the design: purchased. Conditions: read-out: % Inhibition PKC-ε. On the procedure:
as §1

Data set [5] has as its system CCD-16Lu normal immortalized human lung fibroblasts. The data set is described as follows: Proliferation of normal lung cells (protocol of Example 14). In kind it is cell-based.
In data set [6] the test system is H661 human non-small cell lung cancer cells. The data set is described as follows: Inhibition of NSCLC cell proliferation (protocol of Example 14). Format: cell-based. Conditions: for % Cell Survival (±S.D.): H661. Here is the method:
The ability of compounds PKI 1, PKI 2 and PKI 3 to inhibit cancer cell proliferation was tested in vitro using the human neuroblastoma cell line IMR-32. Monolayer cell cultures were trypsinized and the test compound was added at the doses indicated in Table 24 and internalized by pinocytic endocytosis using Influx TM pinocytic cell-loading reagent, a kit from Molecular Probes (Eugene, Oreg.) following the manufacturer's recommendations. The indicated doses refer to the concentration in the loading medium, which was used on 1×10^6 cells in a 10 μl volume, i.e. contained 10 μg to 100 ug of test compound that provides […] per cell. It is worth noting, however, that only a small proportion of the compound is internalized using this technique, so the actual dose may be lower. The cells were treated on day 0 of the experiment. The cells loaded with test compound were cultured in 96 well plates (5,000 cells in 100 μl per well), and the proliferation was monitored over 3 consecutive days. The increase in cell population was quantified using a Hoechst reagent-based assay (modified from Rao and Otto, 1992, Analytical Biochem. 207:186-192) that measures the total DNA of the population. Fluorescence was measured using a Millipore CytoFluor 2350 plate reader (excitation at 360 nm and emission at 460 nm). The measurements were obtained as relative fluorescence intensity, a value that is directly correlated to the total number of cells. Data are expressed as a percentage of matching controls that were supplemented with culture medium alone.
The ability of the compound TIM 10 to inhibit cancer cell proliferation was tested in vitro using the human non-small cell lung cancer cell line H661 and following the general protocol described in Example 14. The effect of compound TIM 10 on CCD-16Lu cells (normal immortalized human lung fibroblasts) was also assessed by the same protocol. The results after 24, 48 and 72 hours of treatment are shown in Table 31 (H661 cell line) and FIG. 24 (A: CCD-16LU cell line, and B: H661 cell line). The change in dose effect at 48 and 72 hrs in normal cells (see FIG. 24A) for lower doses of compound TIM 10 was interpreted as being due to the probable intracellular degradation of compound TIM 10 which would reduce the level of compound TIM 10 to doses that no longer affect growth. In H661 cells, however, at doses of 1 mM compound TIM 10 was not degraded and its sub localization was not altered as assessed by western blot and immunocytochemistry imaging.

T1 sequence (P05771 whole entry): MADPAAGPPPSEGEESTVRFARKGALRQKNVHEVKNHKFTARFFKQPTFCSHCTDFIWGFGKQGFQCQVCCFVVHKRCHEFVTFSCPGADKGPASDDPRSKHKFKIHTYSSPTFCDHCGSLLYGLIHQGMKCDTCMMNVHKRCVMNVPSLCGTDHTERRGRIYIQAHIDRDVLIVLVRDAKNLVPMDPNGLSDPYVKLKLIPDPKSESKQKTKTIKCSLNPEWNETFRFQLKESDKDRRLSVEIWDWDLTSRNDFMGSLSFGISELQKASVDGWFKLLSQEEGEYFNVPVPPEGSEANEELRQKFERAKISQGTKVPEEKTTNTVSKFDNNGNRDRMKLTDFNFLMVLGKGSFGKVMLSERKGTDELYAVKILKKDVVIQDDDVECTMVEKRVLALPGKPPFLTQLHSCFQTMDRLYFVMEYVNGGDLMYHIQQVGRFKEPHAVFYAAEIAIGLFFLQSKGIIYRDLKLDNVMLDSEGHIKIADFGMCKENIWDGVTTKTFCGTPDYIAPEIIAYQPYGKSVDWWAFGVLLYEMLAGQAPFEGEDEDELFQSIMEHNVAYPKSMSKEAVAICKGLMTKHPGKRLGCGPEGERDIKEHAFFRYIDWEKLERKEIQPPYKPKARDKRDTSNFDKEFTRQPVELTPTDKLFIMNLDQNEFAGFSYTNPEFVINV
Chain of PKC beta 1 (P05771 whole entry, canonical isoform): as the sequence (P05771 whole entry) above

Consider `CC[C@H](C)[C@H](NC(=O)[C@H](CO)NC(=O)[C@@H](NC(=O)CNC(=O)[C@@H](NC(=O)[C@H](CC(C)C)NC(=O)[C@H](CC(N)=O)NC(=O)[C@H](CCC(N)=O)NC(=O)[C@H](C)NC(=O)[C@H](CC(=O)O)NC(=O)CNC(=O)CNC(=O)[C@H](CCCCN)NC(=O)[C@@H](NC(=O)[C@H](CCC(=O)O)NC(=O)[C@H](CCC(N)=O)NC(=O)[C@@H](NC(=O)CNC(=O)[C@H](CCCCN)NC(=O)[C@H](C)NC(C)=O)[C@@H](C)CC)C(C)C)[C@@H](C)CC)[C@@H](C)CC)C(N)=O` [PRE 3] (Ac-AKGIQEVKGGDAQNLIGISI-NH2), for which the “Band Intensity” value in data set [1] (100 μg) was determined as 0.0; in data set [1] (200 μg) it was 0.0; in data set [1] (300 μg) it was 0.0; in data set [2] (600 μg) it was 0.888; in data set [2] (3.75 mg) it was 0.600; in data set [2] (5.25 mg), 0.603. For the same compound, the “Band Intensity” value in data set [2] (7.5 mg) is listed as 0.609. The “Relative Intensity (%)” value in data set [1] (100 μg) and in data set [1] (300 μg) was 0.0% each time.
In general, inhibition refers to the relative decrease from the control value, in per cent. As to `CC[C@H](C)[C@H](NC(=O)[C@H](CO)NC(=O)[C@@H](NC(=O)CNC(=O)[C@@H](NC(=O)[C@H](CC(C)C)NC(=O)[C@H](CC(N)=O)NC(=O)[C@H](CCC(N)=O)NC(=O)[C@H](C)NC(=O)[C@H](CC(=O)O)NC(=O)[C@H](CCCCN)NC(=O)CNC(=O)CNC(=O)CNC(=O)CNC(=O)CNC(=O)CNC(=O)CNC(=O)[C@H](CC(C)C)NC(=O)[C@H](CCCNC(=N)N)NC(=O)[C@H](Cc1ccccc1)NC(=O)[C@H](CCCCNC(=O)CN(CCN)C(=O)Cn1cnc2c(N)ncnc21)NC(=O)[C@H](CCCNC(=N)N)NC(=O)[C@H](CCCNC(=N)N)NC(=O)[C@H](Cc1ccccc1)NC(C)=O)[C@@H](C)CC)[C@@H](C)CC)C(N)=O` [TIM 10] (Ac-FRRK(PNA(A))FRLGGGGGGGKDAQNLIGISI-NH2), the inhibition at 15 µM in data set [3] (15.0 μM) is 74%; in data set [4] (15.0 μM), -11%. Also, the inhibition at 30 µM in data set [3] (30.0 μM) is 100%; in data set [4] (30.0 μM) it was 85%. In addition, the “effect on normal lung cells relative to H661” value in data set [5] was “less affected”. Besides, the “% Cell Survival (±S.D.)” value is on record as 97 (6) % in data set [6] (100 μM, 24 Hours); 85 (3) % in data set [6] (100 μM, 48 Hours); 51 (5) % in data set [6] (100 μM, 72 Hours); 91 (5) % in data set [6] (500 μM, 24 Hours); 82 (2) % in data set [6] (500 μM, 48 Hours); 49 (7) % in data set [6] (500 μM, 72 Hours). Besides, the “% Cell Survival (±S.D.)” value in data set [6] (1 mM, 24 Hours) was 85 (9) %; in data set [6] (1 mM, 48 Hours) it was 82 (2) %; in data set [6] (1 mM, 72 Hours), 45 (6) %; in data set [6] (5 mM, 24 Hours) it was 83 (7) %; in data set [6] (5 mM, 48 Hours) it was 79 (2) %; in data set [6] (5 mM, 72 Hours), 43 (5) %. Also, the intracellular degradation entry in data set [6] (H661 cells, 1 mM, western blot and immunocytochemistry) was “not degraded”.
